These are literature values, as cited in publication PMC5483895 (Journal of Medicinal Chemistry, 2017).

Series [1] concerns CXCR4. As to conditions: CXCR4 mutant I259 6.55 A.
The test system of series [2] is CXCR4. The settings on record: CXCR4 virtual screening hits.
The test system of series [3] is CCR5. As to conditions: mutation of I198 5.42 in CCR5, range over all ligands named.
For series [4], the system named is CCR5.
For series [5], the system named is CXCR3. The settings on record: CXCR3 mutant Y271 6.51 A.
Series [6] deals with CXCR3. As to conditions: CXCR3 mutant W268 6.48 A.
The test system of series [7] is CXCR4. The settings on record: mutation of H203 5.42 in CXCR4, range over the ligands named.
For the next series, the system named is CX3CR1. The settings on record: mutations of Lys14, Lys18, Phe49 of the chemokine.

Like-named read-outs stand apart in the source and are kept apart here.

Regarding “CXCL12: endogenous chemokine ligand of CXCR4”, in the series with CXCR4 [1], the “fold effect on potency” value is recorded as 8 fold. As to `Cc1nc(CN(C)CC2CCCN(CCc3ccccc3C)C2)c[nH]1` (stereo not shown) [compound 78], in the series on CXCR4 [2], the affinity was 0.31 µM. Consider `Cc1ccc(-c2ccc3c(c2)C=C(C(=O)Nc2ccc(C[N+](C)(C)C4CCOCC4)cc2)CCC3)cc1.[Cl-]` [compound 19], for which the “fold decrease in affinity and/or potency” value with CCR5 [3] is 3–125 fold. On to CCL3: CC chemokine, for which the “fold effect on binding” value with CCR5 [4] (CCR5 mutant W248 6.48 A) is 10 fold; with CCR5 [4] (CCR5 mutant Y251 6.51 A/I), 7 fold. In the case of CXCL11: chemokine, CXCR3 ligand, the “fold decrease of binding” value in the series on CXCR3 [5] was “more than 10 fold”. Moreover, in the series on CXCR3 [6], the “fold decrease of potency” value is “more than 10 fold”. As to `Cc1ccc(-c2nc3n(c2/C=N/N=C(N)N)CCS3)cc1` [compound 76], the affinity in the series on CXCR4 [2] is 225 µM.

Turning to Maraviroc [compound 16], the “fold decrease in affinity and/or potency” value with CCR5 [3] is 3–125 fold. For the molecule `COC[C@@H](c1ccc(C(F)(F)F)cc1)N1CCN(C2(C)CCN(C(=O)c3c(C)ncnc3C)CC2)C[C@@H]1C` [compound 17, Vicriviroc], the “fold decrease in affinity and/or potency” value in the series on CCR5 [3] is 3–125 fold. For the molecule `c1ccc(CNCc2ccc(CN3CCCNCCNCCCNCC3)cc2)nc1` [compound 2], the “fold effect on affinity/potency” value in the series with CXCR4 [7] is recorded as 3–5 fold. For the molecule `CC#CCN1C(=O)[C@H]([C@@H](O)C2CCCCC2)NC(=O)C12CCN(Cc1c(C)nn(-c3ccccc3)c1C)CC2` [compound 23], the “fold decrease in affinity and/or potency” value in the series on CCR5 [3] is on record as 3–125 fold.

B1: CX3CL1: human CX3C chemokine (protein, UniProt P78423 25-397, looked up)
Fractalkine: QHHGVTKCNITCSKMTSKIPVALLIHYQQNQASCGKRAIILETRQHRLFCADPKEQWVKDAMQHLDRQAAALTRNGGTFEKQIGEVKPRTTPAAGGMDESVVLEPEATGESSSLEPTPSSQEAQRALGTSPELPTGVTGSSGTRLPPTPKAQDGGPVGTELFRVPPVSTAATWQSSAPHQPGPSLWAEAKTSEAPSTQDPSTQASTASSPAPEENAPSEGQRVWGQGQSPRPENSLEREEMGPVPAHTDAFQDWGPGSMAHVSVVPVSSEGTPSREPVASGSWTPKAEEPIHATMDPQRLGVLITPVPDAQAATRRQAVGLLAFLGLLFCLGVAMFTYQSLQGCPRKMAGEMAEGLRYIPRSCGSNSYVLVPV
Regarding B1, the “fold reduction of affinity for the receptor” value in the series on CX3CR1 is listed as “more than 10 fold”.
